From patent US8592422B2, “Bicyclic triazole and pyrazole lactams as allosteric modulators of mGluR5 receptors” (Vanderbilt University, priority 2010, dated 2013)

System: not given
Assay: not given
Details: not given

Row | melting point [°C] | SMILES
1 | 131.3 | Cc1ccnc(N2CCn3nc(COc4ccccc4)cc3C2=O)c1 [Example 17]
2 | 155.3 | Cc1cncc(N2CCn3nc(COc4ccccc4)cc3C2=O)c1 [Example 22]
3 | > 300 | Cc1ccc(N2CCn3nc(COc4ccccc4)cc3C2=O)cn1 [Example 23]
4 | 132.1 | O=C1c2cc(COc3ccccc3)nn2CCN1CC(F)(F)F [Example 24]
5 | > 300 | CC(C)N1CCn2nc(COc3ccccc3)cc2C1=O [Example 25]
6 | > 300 | O=C1c2cc(COc3ccccc3)nn2CCN1CC1CCC1 [Example 27]
7 | 180.2 | O=C1c2cc(COc3ccccc3)nn2CCN1CC1CC1(F)F (stereo not shown) [Example 28]
8 | 240 | O=C1c2cc(COc3ccccc3)nn2CCN1c1cncnc1 [Example 31]
9 | 283.4 | Cc1ncc(N2CCn3nc(COc4ccccc4)cc3C2=O)cn1 [Example 33]
10 | 145.8 | COc1ccccc1N1CCn2nc(COc3ccccc3)cc2C1=O [Example 47]
11 | 115.8 | CCOc1cccc(N2CCn3nc(COc4ccccc4)cc3C2=O)c1 [Example 59]
12 | 76.7 | CC(C)CCc1cccc(N2CCn3nc(COc4ccccc4)cc3C2=O)n1 [Example 65]
13 | 127.5 | O=C1c2cc(COc3ccccc3)nn2CCN1c1ncccc1Cl [Example 68]
14 | 134.7 | Cc1cc(N2CCn3nc(COc4ccccc4)cc3C2=O)ncc1F [Example 72]
15 | 111.3 | O=C1c2cc(COc3ccccc3)nn2CCN1c1cccc(CF)n1 [Example 76]
16 | 144.5 | COc1ccnc(N2CCn3nc(COc4ccccc4)cc3C2=O)n1 [Example 78]
17 | 148.9 | O=C1c2cc(COc3ccccc3)nn2CCN1c1ccncn1 [Example 80]
18 | 143.7 | Cc1cc(N2CCn3nc(COc4ccccc4)cc3C2=O)ncn1 [Example 83]
19 | 166.7 | Cc1ccc(N2CCn3nc(COc4ccccc4)cc3C2=O)nn1 [Example 84]
20 | 239.3 | O=C1c2cc(COc3ccccc3)nn2CCN1c1cnccn1 [Example 87]
21 | 177.1 | Cc1nc(N2CCn3nc(COc4ccccc4)cc3C2=O)ncc1F [Example 90]
22 | 183.7 | COc1cc(C)nc(N2CCn3nc(COc4ccccc4)cc3C2=O)n1 [Example 99]
23 | 235.5 | Cc1cnc(N2CCn3nc(COc4ccccc4)cc3C2=O)cn1 [Example 100]
24 | 158.1 | COc1nc(N2CCn3nc(COc4ccccc4)cc3C2=O)cnc1C [Example 102]
25 | 140.9 | COc1cc(C)cc(N2CCn3nc(COc4ccccc4)cc3C2=O)n1 [Example 104]

Target: T1, human mGluR5a receptor (Homo sapiens, UniProt P41594)
T1 construct: cDNA subcloned into pcDNA3.1(-)
Assay: Cell-based functional Ca2+ mobilization assay (FDSS), potentiation of glutamate EC20 response
Details: HEK cells transfected with human mGluR5 (H10H or H12H); in presence of EC20 glutamate; read-out: EC50
Summary of the method: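 HEK293A cells stably expressing human mGluR5a (H10H or H12H clones), plated overnight in glutamate-glutamine-free medium, loaded with Ca2+-sensitive dye (e.g. Fluo-4) and read on FDSS.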

T1 sequence (P41594 21-1180 isoform P41594-2 limits assumed): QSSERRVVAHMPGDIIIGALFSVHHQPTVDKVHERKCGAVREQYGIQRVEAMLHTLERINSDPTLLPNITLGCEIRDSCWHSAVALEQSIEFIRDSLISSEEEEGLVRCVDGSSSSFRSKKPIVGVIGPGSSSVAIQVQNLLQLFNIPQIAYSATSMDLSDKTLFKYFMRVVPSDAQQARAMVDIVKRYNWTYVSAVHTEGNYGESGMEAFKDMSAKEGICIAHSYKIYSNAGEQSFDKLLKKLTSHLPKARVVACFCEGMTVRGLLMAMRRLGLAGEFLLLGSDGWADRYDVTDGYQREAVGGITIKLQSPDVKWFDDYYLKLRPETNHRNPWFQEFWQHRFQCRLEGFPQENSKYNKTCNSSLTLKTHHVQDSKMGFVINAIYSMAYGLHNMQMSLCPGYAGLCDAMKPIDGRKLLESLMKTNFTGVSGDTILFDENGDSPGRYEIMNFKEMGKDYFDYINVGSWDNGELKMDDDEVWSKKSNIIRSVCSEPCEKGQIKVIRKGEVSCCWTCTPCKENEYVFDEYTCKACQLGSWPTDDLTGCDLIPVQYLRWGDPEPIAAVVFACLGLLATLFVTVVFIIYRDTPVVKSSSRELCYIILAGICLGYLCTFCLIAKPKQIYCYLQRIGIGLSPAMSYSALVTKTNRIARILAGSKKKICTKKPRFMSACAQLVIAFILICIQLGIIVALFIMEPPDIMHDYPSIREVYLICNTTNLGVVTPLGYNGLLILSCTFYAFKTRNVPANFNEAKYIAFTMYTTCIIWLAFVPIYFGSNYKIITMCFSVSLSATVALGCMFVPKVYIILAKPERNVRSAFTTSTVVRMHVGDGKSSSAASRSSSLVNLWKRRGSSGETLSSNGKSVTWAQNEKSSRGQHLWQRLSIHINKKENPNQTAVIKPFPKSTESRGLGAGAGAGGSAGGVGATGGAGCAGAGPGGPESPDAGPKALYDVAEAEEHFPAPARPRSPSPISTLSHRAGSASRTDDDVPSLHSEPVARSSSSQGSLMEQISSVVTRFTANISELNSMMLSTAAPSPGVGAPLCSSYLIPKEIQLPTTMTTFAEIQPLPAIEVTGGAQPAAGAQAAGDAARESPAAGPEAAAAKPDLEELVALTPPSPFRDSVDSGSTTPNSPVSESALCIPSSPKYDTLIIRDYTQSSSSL

Row | EC50 [nM] | SMILES
26 | 490 | Cc1ccnc(N2CCn3nc(COc4ccccc4)cc3C2=O)c1 [Example 17]
27 | 1200 | Cc1cncc(N2CCn3nc(COc4ccccc4)cc3C2=O)c1 [Example 22]
28 | 1200 | Cc1ccc(N2CCn3nc(COc4ccccc4)cc3C2=O)cn1 [Example 23]
29 | 2820 | O=C1c2cc(COc3ccccc3)nn2CCN1CC(F)(F)F [Example 24]
30 | 1860 | CC(C)N1CCn2nc(COc3ccccc3)cc2C1=O [Example 25]
31 | 92 | O=C1c2cc(COc3ccccc3)nn2CCN1CC1CCC1 [Example 27]
32 | 174 | O=C1c2cc(COc3ccccc3)nn2CCN1CC1CC1(F)F (stereo not shown) [Example 28]
33 | > 10000 | O=C1c2cc(COc3ccccc3)nn2CCN1c1cncnc1 [Example 31]
34 | > 10000 | Cc1ncc(N2CCn3nc(COc4ccccc4)cc3C2=O)cn1 [Example 33]
35 | 93 | COc1ccccc1N1CCn2nc(COc3ccccc3)cc2C1=O [Example 47]
36 | 130 | CCOc1cccc(N2CCn3nc(COc4ccccc4)cc3C2=O)c1 [Example 59]
37 | 363 | CC(C)CCc1cccc(N2CCn3nc(COc4ccccc4)cc3C2=O)n1 [Example 65]
38 | 324 | O=C1c2cc(COc3ccccc3)nn2CCN1c1ncccc1Cl [Example 68]
39 | 91 | Cc1cc(N2CCn3nc(COc4ccccc4)cc3C2=O)ncc1F [Example 72]
40 | 66 | O=C1c2cc(COc3ccccc3)nn2CCN1c1cccc(CF)n1 [Example 76]
41 | 490 | COc1ccnc(N2CCn3nc(COc4ccccc4)cc3C2=O)n1 [Example 78]
42 | 1290 | O=C1c2cc(COc3ccccc3)nn2CCN1c1ccncn1 [Example 80]
43 | 891 | Cc1cc(N2CCn3nc(COc4ccccc4)cc3C2=O)ncn1 [Example 83]
44 | > 10000 | Cc1ccc(N2CCn3nc(COc4ccccc4)cc3C2=O)nn1 [Example 84]
45 | 813 | O=C1c2cc(COc3ccccc3)nn2CCN1c1cnccn1 [Example 87]
46 | 575 | Cc1nc(N2CCn3nc(COc4ccccc4)cc3C2=O)ncc1F [Example 90]
47 | 646 | COc1cc(C)nc(N2CCn3nc(COc4ccccc4)cc3C2=O)n1 [Example 99]
48 | 955 | Cc1cnc(N2CCn3nc(COc4ccccc4)cc3C2=O)cn1 [Example 100]
49 | 120 | COc1nc(N2CCn3nc(COc4ccccc4)cc3C2=O)cnc1C [Example 102]
50 | 54 | COc1cc(C)cc(N2CCn3nc(COc4ccccc4)cc3C2=O)n1 [Example 104]

Same assay, conditions: HEK cells transfected with human mGluR5 (H10H or H12H); in presence of EC20 glutamate; read-out: pEC50 (converted)

Row | EC50 [nM] | SMILES
51 | 1660 | O=C1c2cc(COc3ccccc3)nn2CCN1CC(F)(F)F [Example 24]

Same assay, conditions: maximum % effect in concentration-response curve, as percent of response to maximally effective glutamate

Row | Emax [%] | SMILES
52 | 72 | Cc1ccnc(N2CCn3nc(COc4ccccc4)cc3C2=O)c1 [Example 17]
53 | 74 | Cc1cncc(N2CCn3nc(COc4ccccc4)cc3C2=O)c1 [Example 22]
54 | 81 | Cc1ccc(N2CCn3nc(COc4ccccc4)cc3C2=O)cn1 [Example 23]
55 | 78 | O=C1c2cc(COc3ccccc3)nn2CCN1CC(F)(F)F [Example 24]
56 | 53 | CC(C)N1CCn2nc(COc3ccccc3)cc2C1=O [Example 25]
57 | 80 | O=C1c2cc(COc3ccccc3)nn2CCN1CC1CCC1 [Example 27]
58 | 60 | O=C1c2cc(COc3ccccc3)nn2CCN1CC1CC1(F)F (stereo not shown) [Example 28]
59 | 58 | O=C1c2cc(COc3ccccc3)nn2CCN1c1cncnc1 [Example 31]
60 | 67 | Cc1ncc(N2CCn3nc(COc4ccccc4)cc3C2=O)cn1 [Example 33]
61 | 65 | COc1ccccc1N1CCn2nc(COc3ccccc3)cc2C1=O [Example 47]
62 | 57 | CCOc1cccc(N2CCn3nc(COc4ccccc4)cc3C2=O)c1 [Example 59]
63 | 74 | CC(C)CCc1cccc(N2CCn3nc(COc4ccccc4)cc3C2=O)n1 [Example 65]
64 | 68 | O=C1c2cc(COc3ccccc3)nn2CCN1c1ncccc1Cl [Example 68]
65 | 72 | Cc1cc(N2CCn3nc(COc4ccccc4)cc3C2=O)ncc1F [Example 72]
66 | 69 | O=C1c2cc(COc3ccccc3)nn2CCN1c1cccc(CF)n1 [Example 76]
67 | 69 | COc1ccnc(N2CCn3nc(COc4ccccc4)cc3C2=O)n1 [Example 78]
68 | 71 | O=C1c2cc(COc3ccccc3)nn2CCN1c1ccncn1 [Example 80]
69 | 65 | Cc1cc(N2CCn3nc(COc4ccccc4)cc3C2=O)ncn1 [Example 83]
70 | 53 | Cc1ccc(N2CCn3nc(COc4ccccc4)cc3C2=O)nn1 [Example 84]
71 | 56 | O=C1c2cc(COc3ccccc3)nn2CCN1c1cnccn1 [Example 87]
72 | 67 | Cc1nc(N2CCn3nc(COc4ccccc4)cc3C2=O)ncc1F [Example 90]
73 | 67 | COc1cc(C)nc(N2CCn3nc(COc4ccccc4)cc3C2=O)n1 [Example 99]
74 | 67 | Cc1cnc(N2CCn3nc(COc4ccccc4)cc3C2=O)cn1 [Example 100]
75 | 69 | COc1nc(N2CCn3nc(COc4ccccc4)cc3C2=O)cnc1C [Example 102]
76 | 67 | COc1cc(C)cc(N2CCn3nc(COc4ccccc4)cc3C2=O)n1 [Example 104]
